ChEMBL document CHEMBL1201862, “PubChem BioAssay data set” (2004)
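Method: 48-hour compound exposure of cells in 96-well plates, five concentrations, linear interpolation of endpoints. GI50 marks 50% less growth.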 The source made the active and inactive calls. Cut-off read from the data, not from the text of the source: active = GI50 up to about 1.1 µM and inactive = higher.

How the values were obtained:
Assay in all cases: NCI anticancer screen, dose series, 48 h
786-0 = tested on: 786-0
A498 = tested on: A498
A549 = tested on: A549
ACHN = tested on: ACHN
CAKI-1 = tested on: CAKI-1
COLO 205 = tested on: COLO 205
DLD-1 = tested on: DLD-1
DMS-114 = tested on: DMS-114
DMS-273 = tested on: DMS-273
EKVX = tested on: EKVX
HCC 2998 = tested on: HCC 2998
HCT-116 = tested on: HCT-116
HCT-15 = tested on: HCT-15
HOP-18 = tested on: HOP-18
HOP-62 = tested on: HOP-62
HT-29 = tested on: HT-29
IGROV-1 = tested on: IGROV-1
K562 = tested on: K562
KM-20L2 = tested on: KM-20L2
KM12 = tested on: KM12
LOX IMVI = tested on: LOX IMVI
LXFL 529 = tested on: LXFL 529
M14 = tested on: M14
MOLT-4 = tested on: MOLT-4
Malme-3M = tested on: Malme-3M
NCI-H226 = tested on: NCI-H226
NCI-H23 = tested on: NCI-H23
NCI-H460 = tested on: NCI-H460
NCI-H522 = tested on: NCI-H522
OVCAR-3 = tested on: OVCAR-3
OVCAR-4 = tested on: OVCAR-4
OVCAR-5 = tested on: OVCAR-5
OVCAR-8 = tested on: OVCAR-8
RPMI-8226 = tested on: RPMI-8226
RXF 393 = tested on: RXF 393
RXF 631 = tested on: RXF 631
SF-268 = tested on: SF-268
SF-295 = tested on: SF-295
SF-539 = tested on: SF-539
SK-MEL-28 = tested on: SK-MEL-28
SK-MEL-2 = tested on: SK-MEL-2
SK-MEL-5 = tested on: SK-MEL-5
SN12C = tested on: SN12C
SNB-19 = tested on: SNB-19
SNB-75 = tested on: SNB-75
SNB-78 = tested on: SNB-78
SR = tested on: SR
SW-620 = tested on: SW-620
TK-10 = tested on: TK-10
U-251 = tested on: U-251
UACC-257 = tested on: UACC-257
UACC-62 = tested on: UACC-62
UO-31 = tested on: UO-31
XF498 = tested on: XF498

Structure (SMILES): CO[C@@]1(c2ccccc2)O[C@H]2OCCC2[C@H]1c1ccc(Cl)cc1 (some centres undefined)
- GI50 (786-0): 32 µM (inactive)
- GI50 (A498): 25.5 µM (inactive)
- GI50 (A549): 32.7 µM (inactive)
- GI50 (ACHN): 34 µM (inactive)
- GI50 (CAKI-1): 28.8 µM (inactive)
- GI50 (COLO 205): 20 µM (inactive)
- GI50 (DLD-1): 37.7 µM (inactive)
- GI50 (DMS-114): 31.8 µM (inactive)
- GI50 (DMS-273): 39.5 µM (inactive)
- GI50 (EKVX): 24.7 µM (inactive)
- GI50 (HCC 2998): 35.3 µM (inactive)
- GI50 (HCT-116): 27.6 µM (inactive)
- GI50 (HCT-15): 36.1 µM
- GI50 (HOP-18): 22.9 µM (inactive)
- GI50 (HOP-62): 40.8 µM (inactive)
- GI50 (HT-29): 20.3 µM (inactive)
- GI50 (IGROV-1): 97.7 µM (inactive)
- GI50 (K562): 29.9 µM (inactive)
- GI50 (KM-20L2): 32.1 µM (inactive)
- GI50 (KM12): 47 µM (inactive)
- GI50 (LOX IMVI): 32.4 µM (inactive)
- GI50 (LXFL 529): 27.9 µM (inactive)
- GI50 (M14): 37.6 µM (inactive)
- GI50 (MOLT-4): 17.9 µM (inactive)
- GI50 (Malme-3M): 28.5 µM (inactive)
- GI50 (NCI-H226): 33.4 µM (inactive)
- GI50 (NCI-H23): 30.4 µM (inactive)
- GI50 (NCI-H460): 23.2 µM (inactive)
- GI50 (NCI-H522): 16.4 µM (inactive)
- GI50 (OVCAR-3): 16.5 µM (inactive)
- GI50 (OVCAR-4): 26.6 µM (inactive)
- GI50 (OVCAR-5): 29.1 µM (inactive)
- GI50 (OVCAR-8): 33.7 µM (inactive)
- GI50 (RPMI-8226): 34 µM (inactive)
- GI50 (RXF 393): 17.7 µM (inactive)
- GI50 (RXF 631): 29.4 µM (inactive)
- GI50 (SF-268): 56.9 µM (inactive)
- GI50 (SF-295): 21.3 µM (inactive)
- GI50 (SF-539): 51.6 µM (inactive)
- GI50 (SK-MEL-28): 63.8 µM (inactive)
- GI50 (SK-MEL-2): 31.8 µM (inactive)
- GI50 (SK-MEL-5): 17 µM (inactive)
- GI50 (SN12C): 51.5 µM (inactive)
- GI50 (SNB-19): 40.1 µM (inactive)
- GI50 (SNB-75): 28.8 µM (inactive)
- GI50 (SNB-78): 45.1 µM (inactive)
- GI50 (SR): 29 µM (inactive)
- GI50 (SW-620): 32.7 µM (inactive)
- GI50 (TK-10): 40.8 µM (inactive)
- GI50 (U-251): 28.2 µM (inactive)
- GI50 (UACC-257): 22 µM (inactive)
- GI50 (UACC-62): 34.2 µM (inactive)
- GI50 (UO-31): 25.4 µM (inactive)
- GI50 (XF498): 25 µM (inactive)
